Here are results for 15 molecules from patent US20210038607A1, “OXADIAZOLYLTHIOPHENE DERIVATIVES USEFUL AS HISTONE DEACETYLASE INHIBITORS” (Karus Therapeutics Limited, priority 2018, published 2021).

Like-named read-outs stand apart in the source and are kept apart here. Some results are limits rather than exact numbers.

One assay deals with T1, Recombinant human HDAC6 (Homo sapiens, UniProt Q9UBN7).
T1 construct: full length, MW=159 kDa; GST (N); host or cells: Sf9 insect cells (baculovirus)
T1 sequence (Q9UBN7 1-1215): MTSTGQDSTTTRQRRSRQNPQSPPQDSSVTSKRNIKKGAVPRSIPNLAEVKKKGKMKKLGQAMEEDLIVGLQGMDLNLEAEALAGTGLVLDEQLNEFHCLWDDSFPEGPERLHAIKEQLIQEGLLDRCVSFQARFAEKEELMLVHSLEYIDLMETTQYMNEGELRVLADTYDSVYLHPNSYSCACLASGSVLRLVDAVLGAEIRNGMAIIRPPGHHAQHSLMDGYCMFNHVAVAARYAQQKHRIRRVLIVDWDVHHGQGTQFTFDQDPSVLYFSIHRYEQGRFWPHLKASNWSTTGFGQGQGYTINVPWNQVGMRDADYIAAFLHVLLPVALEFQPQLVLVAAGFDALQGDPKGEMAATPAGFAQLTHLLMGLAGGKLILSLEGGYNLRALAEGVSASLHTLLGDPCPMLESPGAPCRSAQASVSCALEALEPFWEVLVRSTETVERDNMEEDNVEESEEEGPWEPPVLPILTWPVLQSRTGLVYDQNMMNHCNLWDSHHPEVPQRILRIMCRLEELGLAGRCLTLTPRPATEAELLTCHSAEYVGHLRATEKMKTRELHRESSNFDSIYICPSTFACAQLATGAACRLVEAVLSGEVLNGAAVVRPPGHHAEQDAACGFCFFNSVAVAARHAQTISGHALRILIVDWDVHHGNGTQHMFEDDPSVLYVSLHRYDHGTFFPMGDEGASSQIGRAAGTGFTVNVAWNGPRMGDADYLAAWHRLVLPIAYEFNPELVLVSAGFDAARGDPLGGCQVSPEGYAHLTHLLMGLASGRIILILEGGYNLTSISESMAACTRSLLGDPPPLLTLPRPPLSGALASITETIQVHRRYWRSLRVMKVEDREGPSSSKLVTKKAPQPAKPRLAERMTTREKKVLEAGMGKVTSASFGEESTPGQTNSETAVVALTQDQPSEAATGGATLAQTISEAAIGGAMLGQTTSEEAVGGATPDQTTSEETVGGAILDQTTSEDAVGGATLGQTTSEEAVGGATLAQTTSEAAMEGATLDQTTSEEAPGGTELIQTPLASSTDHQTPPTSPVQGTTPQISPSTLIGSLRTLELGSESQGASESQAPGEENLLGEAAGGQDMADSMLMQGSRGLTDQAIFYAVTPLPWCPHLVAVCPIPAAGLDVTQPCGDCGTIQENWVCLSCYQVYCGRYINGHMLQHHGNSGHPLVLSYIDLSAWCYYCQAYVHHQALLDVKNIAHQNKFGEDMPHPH
Put plainly: HDAC6 biochemical assay, AMC-labeled peptide substrate. A digest of the protocol: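 Two-step fluorogenic read-out: enzyme deacetylates 50 μM RHKK(Ac)AMC for 1 h at 30° C in pH 8.0 Tris buffer with BSA and 1% DMSO, then developer cleavage gives signal at Ex 360/Em 460. Enzyme: 0.3 ng/ul recombinant full-length human HDAC6, GST-tagged, Sf9-expressed.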

A further assay concerns the target T2, Human HDAC5 (Homo sapiens, UniProt Q9UQL6).
T2 construct: full length with C-terminal His tag, MW=51.1 kDa; His (C); host or cells: baculovirus expression system
Briefly: HDAC5 biochemical assay, class IIa-specific substrate. To be noted: read-out: HDAC Isoform IC50 (nM) 5. A digest of the protocol: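 Full-length C-terminal His-tagged HDAC5 from baculovirus (0.05 ng/ul) incubated 30 min at room temperature with 50 μM Boc-Lys(trifluoroacetyl)-AMC and compound, Tris pH 8.0 buffer with BSA, 1% DMSO. Developer then releases AMC; fluorescence 360/460 nm.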

The target of a further assay is T3, Human HDAC7 (Homo sapiens, UniProt Q8WUI4).
T3 construct: (a.a. 518-end) with N-terminal GST tag; GST (N); host or cells: baculovirus expression system
T3 sequence (Q8WUI4 518-952 limits assumed): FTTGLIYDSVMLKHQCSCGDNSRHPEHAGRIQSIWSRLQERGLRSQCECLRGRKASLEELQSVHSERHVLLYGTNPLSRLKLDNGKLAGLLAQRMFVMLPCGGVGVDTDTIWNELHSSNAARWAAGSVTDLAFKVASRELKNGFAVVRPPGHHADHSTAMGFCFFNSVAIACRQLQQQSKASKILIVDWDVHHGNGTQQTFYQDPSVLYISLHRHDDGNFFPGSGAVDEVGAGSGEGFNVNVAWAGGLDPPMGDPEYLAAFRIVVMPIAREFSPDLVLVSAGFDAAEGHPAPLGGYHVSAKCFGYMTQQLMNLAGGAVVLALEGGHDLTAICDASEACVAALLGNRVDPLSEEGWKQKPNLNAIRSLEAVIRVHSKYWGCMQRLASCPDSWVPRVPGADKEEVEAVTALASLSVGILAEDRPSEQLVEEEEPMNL
Briefly: HDAC7 biochemical assay, class IIa-specific substrate. To be noted: read-out: HDAC Isoform IC50 (nM) 7. The gist of the method:
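GST-tagged HDAC7 (a.a. 518-end, baculovirus-expressed) at 0.001 ng/ul with 50 μM Boc-Lys(trifluoroacetyl)-AMC substrate, 30 min at room temperature in pH 8.0 Tris buffer with BSA, 1% DMSO final. Developer then releases AMC; fluorescence read at 360/460 nm.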

Where [1] appears, read: HDAC6, read-out: HDAC Isoform IC50 (nM) 6.

T2 sequence (Q9UQL6 656-1122 limits assumed): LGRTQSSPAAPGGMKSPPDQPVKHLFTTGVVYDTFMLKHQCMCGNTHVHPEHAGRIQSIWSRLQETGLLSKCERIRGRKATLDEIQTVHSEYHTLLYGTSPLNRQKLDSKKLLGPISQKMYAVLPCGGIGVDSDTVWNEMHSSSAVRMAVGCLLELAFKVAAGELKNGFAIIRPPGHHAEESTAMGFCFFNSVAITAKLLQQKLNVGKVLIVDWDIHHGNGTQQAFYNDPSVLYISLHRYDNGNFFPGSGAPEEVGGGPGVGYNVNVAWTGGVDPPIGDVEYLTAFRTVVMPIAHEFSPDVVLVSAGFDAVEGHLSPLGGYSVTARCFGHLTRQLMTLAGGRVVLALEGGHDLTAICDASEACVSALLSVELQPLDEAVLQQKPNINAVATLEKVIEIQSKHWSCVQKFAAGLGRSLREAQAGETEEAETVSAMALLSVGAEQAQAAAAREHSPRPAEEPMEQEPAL

One may read the IC50 as the concentration needed to halve the response being measured. Regarding `CNC(=O)c1cnnc(N(Cc2ccc(-c3noc(C(F)(F)F)n3)s2)c2cnccn2)c1` [Example DY, N-Methyl-6-[(pyrazin-2-yl)({5-[5-(trifluoromethyl)-1,2,4-oxadiazol-3-yl]thiophen-2-yl}methyl)amino]pyridazine-4-carboxamide], the concentration for half-maximal inhibition (IC50) at Recombinant human HDAC6 (setting [1]) is no more than 500 nM; on Human HDAC5, no more than 1000 nM; on Human HDAC7, no more than 500 nM.

With `COC1CN(C(=O)c2cnnc(N(Cc3ccc(-c4noc(C(F)(F)F)n4)s3)c3cnccn3)c2)C1` [Example DZ, 5-(3-Methoxyazetidine-1-carbonyl)-N-(pyrazin-2-yl)-N-({5-[5-(trifluoromethyl)-1,2,4-oxadiazol-3-yl]thiophen-2-yl}methyl)pyridazin-3-amine], the values for the concentration for half-maximal inhibition (IC50) at Recombinant human HDAC6 (setting [1]), on Human HDAC5 and on Human HDAC7 were no more than 500 nM, no more than 1000 nM and no more than 1000 nM, respectively.

In the case of `O=C(c1cnnc(N(Cc2ccc(-c3noc(C(F)(F)F)n3)s2)c2cnccn2)c1)N1CCCC1` [Example EA, N-(Pyrazin-2-yl)-5-(pyrrolidine-1-carbonyl)-N-({5-[5-(trifluoromethyl)-1,2,4-oxadiazol-3-yl]thiophen-2-yl}methyl)pyridazin-3-amine], the concentration for half-maximal inhibition (IC50) is no more than 500 nM on Recombinant human HDAC6 (setting [1]), no more than 1000 nM on Human HDAC5 and no more than 10000 nM on Human HDAC7.

Consider `O=C(c1cnnc(N(Cc2ccc(-c3noc(C(F)(F)F)n3)s2)c2cnccn2)c1)N1CCOCC1` [Example EB, 5-(Morpholine-4-carbonyl)-N-(pyrazin-2-yl)-N-({5-[5-(trifluoromethyl)-1,2,4-oxadiazol-3-yl]thiophen-2-yl}methyl)pyridazin-3-amine], for which the half-maximal inhibitory concentration (IC50) was no more than 500 nM on Recombinant human HDAC6 (setting [1]); 99.1 nM at Recombinant human HDAC6 (With assay conditions in the experimental section described herein, read-out: HDAC6 IC50); no more than 1000 nM on Human HDAC5; no more than 1000 nM at Human HDAC7.

As for `CN1CCN(C(=O)c2cnnc(N(Cc3ccc(-c4noc(C(F)(F)F)n4)s3)c3cnccn3)c2)CC1` [Example EC, 5-(4-Methylpiperazine-1-carbonyl)-N-(pyrazin-2-yl)-N-({5-[5-(trifluoromethyl)-1,2,4-oxadiazol-3-yl]thiophen-2-yl}methyl)pyridazin-3-amine], the IC50 at Recombinant human HDAC6 (setting [1]) is no more than 500 nM; on Human HDAC5, no more than 10000 nM; at Human HDAC7 it was no more than 1000 nM.

Consider `O=C(c1cnnc(N(Cc2ccc(-c3noc(C(F)(F)F)n3)s2)c2cnccn2)c1)N1CCS(=O)(=O)CC1` [Example ED, 4-{6-[(Pyrazin-2-yl)({5-[5-(trifluoromethyl)-1,2,4-oxadiazol-3-yl]thiophen-2-yl}methyl)amino]pyridazine-4-carbonyl}-1λ^6-thiomorpholine-1,1-dione], for which the values for the IC50 at Recombinant human HDAC6 (setting [1]), at Human HDAC5 and at Human HDAC7 were no more than 500 nM, no more than 1000 nM and no more than 10000 nM, respectively.

Regarding `N#Cc1cnnc(N(Cc2ccc(-c3noc(C(F)(F)F)n3)s2)c2cnccn2)c1` [Example EE, 6-[(Pyrazin-2-yl)({5-[5-(trifluoromethyl)-1,2,4-oxadiazol-3-yl]thiophen-2-yl}methyl)amino]pyridazine-4-carbonitrile], the IC50 was no more than 500 nM at Recombinant human HDAC6 (setting [1]), no more than 1000 nM at Human HDAC5 and no more than 10000 nM on Human HDAC7.

Consider `FC(F)(F)c1cnnc(N(Cc2ccc(-c3noc(C(F)(F)F)n3)s2)c2cnccn2)c1` [Example EF, N-(Pyrazin-2-yl)-5-(trifluoromethyl)-N-({5-[5-(trifluoromethyl)-1,2,4-oxadiazol-3-yl]thiophen-2-yl}methyl)pyridazin-3-amine], for which the half-inhibitory concentration (IC50) was no more than 500 nM at Recombinant human HDAC6 (setting [1]), no more than 10000 nM at Human HDAC5 and no more than 10000 nM on Human HDAC7.

In the case of `COc1cncc(N(Cc2ccc(-c3noc(C(F)(F)F)n3)s2)c2cc(C(F)(F)F)cnn2)n1` [Example EN, N-(6-Methoxypyrazin-2-yl)-5-(trifluoromethyl)-N-({5-[5-(trifluoromethyl)-1,2,4-oxadiazol-3-yl]thiophen-2-yl}methyl)pyridazin-3-amine], the IC50 at Recombinant human HDAC6 (setting [1]) was no more than 500 nM; on Human HDAC5, no more than 10000 nM; at Human HDAC7 it was no more than 10000 nM.

Regarding `FC(F)(F)c1cnnc(N(Cc2ccc(-c3noc(C(F)(F)F)n3)s2)c2cccnn2)c1` [Example ER, N-(Pyridazin-3-yl)-5-(trifluoromethyl)-N-({5-[5-(trifluoromethyl)-1,2,4-oxadiazol-3-yl]thiophen-2-yl}methyl)pyridazin-3-amine], the IC50 is no more than 500 nM at Recombinant human HDAC6 (setting [1]), no more than 10000 nM on Human HDAC5 and no more than 10000 nM at Human HDAC7.

On to `O=C(O)c1cnnc(N(Cc2ccc(-c3noc(C(F)(F)F)n3)s2)c2cc(C(F)(F)F)cnn2)c1` [Example ES, 6-[({5-[5-(Trifluoromethyl)-1,2,4-oxadiazol-3-yl]thiophen-2-yl}methyl)[5-(trifluoromethyl)pyridazin-3-yl]amino]pyridazine-4-carboxylicacid], for which the half-maximal inhibitory concentration (IC50) is no more than 500 nM at Recombinant human HDAC6 (setting [1]), no more than 10000 nM at Human HDAC5 and no more than 10000 nM on Human HDAC7.

Regarding `FC(F)(F)c1cnnc(N(Cc2ccc(-c3noc(C(F)(F)F)n3)s2)c2cc(C(F)(F)F)cnn2)c1` [Example EU, 5-(Trifluoromethyl)-N-({5-[5-(trifluoromethyl)-1,2,4-oxadiazol-3-yl]thiophen-2-yl}methyl)-N-[5-(trifluoromethyl)pyridazin-3-yl]pyridazin-3-amine], the IC50 at Recombinant human HDAC6 (setting [1]) was no more than 500 nM; on Human HDAC5, no more than 10000 nM; on Human HDAC7, no more than 10000 nM.

On to `O=C(O)c1ccc(N(Cc2sc(-c3noc(C(F)(F)F)n3)cc2F)c2cnccn2)nn1` [Example EZ, 6-[({3-Fluoro-5-[5-(trifluoromethyl)-1,2,4-oxadiazol-3-yl]thiophen-2-yl}methyl)(pyrazin-2-yl)amino]pyridazine-3-carboxylic acid], for which the 50% inhibitory concentration (IC50) at Recombinant human HDAC6 (setting [1]), on Human HDAC5 and at Human HDAC7 was no more than 10000 nM in each case.

As for `O=C(O)c1cnnc(N(Cc2sc(-c3noc(C(F)(F)F)n3)cc2F)c2cnccn2)c1` [Example FA, 6-[({3-fluoro-5-[5-(trifluoromethyl)-1,2,4-oxadiazol-3-yl]thiophen-2-yl}methyl)(pyrazin-2-yl)amino]pyridazine-4-carboxylic acid], the concentration for half-maximal inhibition (IC50) is no more than 500 nM on Recombinant human HDAC6 (setting [1]), no more than 1000 nM on Human HDAC5 and no more than 1000 nM at Human HDAC7.

As for `CNC(=O)c1ccc(N(Cc2ccc(-c3noc(C(F)(F)F)n3)s2)c2cnccn2)nn1` [Example FC, N-Methyl-6-[(pyrazin-2-yl)({5-[5-(trifluoromethyl)-1,2,4-oxadiazol-3-yl]thiophen-2-yl}methyl)amino]pyridazine-3-carboxamide], the half-maximal inhibitory concentration (IC50) at Recombinant human HDAC6 (setting [1]), on Human HDAC5 and on Human HDAC7 was no more than 500 nM each time.
